From patent US3965151A, “Intermediates for tricyclic benzodiazepines” (Hoffmann-La Roche Inc., priority 1975, dated 1976) come the findings set out here.

The structures appear in SMILES notation.

Assay type in all cases: in vivo
One experiment concerns Cats. As to the kind of experiment: Unanesthetized Cat (minimum symptoms, usually ataxia; muscle relaxant activity). Particulars: Felis catus, oral, read-out: Unanesthetized Cat MED. The protocol: Cats are treated orally and observed for minimum symptoms--usually ataxia. One cat is used at a dose of 50 mgm/kgm. If activity is present, up to three cats/dose are used. Results are given as minimum effective dose. This test is useful in determining muscle relaxant activity.

Experiment [1] deals with mice. As to the kind of experiment: Antimetrazol (protection from metrazol-induced convulsive seizures). As to conditions: Mus musculus, oral, 1 hour before metrazol ~125 mg/kg s.c., 50 per cent of animals protected from convulsive seizures, read-out: Antimetrazole ED50. On the procedure: This test determines anticonvulsant and/or sedative activity of compounds in mice. The test compound is administered orally to groups of four mice at various dose levels. One hour later, metrazol (at a dose level previously determined to be sufficient to induce convulsive seizures in all test animals ~125 mg/kg.) is administered subcutaneously and the animals are observed for protection from convulsive seizures. Results are recorded as the number of animals protected against convulsions. The dose at which 50 per cent of the animals are protected from convulsive seizures is expressed as the ED50.

The test system of experiment [2] is mice. As to the kind of experiment: Inclined Screen (paralyzing effects, muscle relaxant and/or sedative activity). Particulars: Mus musculus, 4 h; male mice, at least four hours observation; dose expected to cause 50 per cent of mice to slide off the screen; read-out: Inclined Screen PD50. The protocol: The test is useful in determining muscle relaxant and/or sedative activity. Groups of six male mice are given the test drug (maximum dose of 500 mg/kg.) and then are left on the inclined screen at least four hours for observation of paralyzing effects severe enough to cause them to slide off the screen. If activity is observed, additional doses are tested until at least two are reached at which some, but not all the animals slide off the screen. Doses at which mice fall off the screen due to toxicity or excitation are not included in the calculation of PD50. The PD50 is determined from a graph on which dose is plotted against per cent of mice paralyzed. This PD50 value is defined as the dose in mg/kg. which can be expected to cause 50 per cent of mice to slide off the screen.

The test system of experiment [3] is mice. Put plainly: Foot Shock (blocking of foot shock-induced fighting in pairs of mice). As to conditions: oral, 1 hour prior to second shocking, three out of three pairs blocked from fighting. The protocol: This test is a screen for compounds having muscle relaxant and/or anti-anxiety (tranquilizer) activity. A pair of mice is confined under a 1 liter beaker placed on a grid which presents shock to the feet. At least five fighting episodes are elicited in a 2-minute period. Pairs of mice are marked and pretreated by oral dosage 1 hour prior to a second shocking. Logarithmic-dose intervals are utilized up to a maximum of 100 mg/kgm. At the 100 per cent blocking dose, three out of three pairs must be blocked from fighting.

For `O=C1CN2CCOC2(c2ccccc2F)c2cc(Cl)ccc2N1CCO` (stereo not shown) [Compound B, 10-Chloro-11b-(2-fluorophenyl)-7-(2-hydroxyethyl)-2,3,5,11b-tetrahydrooxazolo[3,2-d][1,4]benzodiazepin-6(7H)-one], in the experiment on Cats, the minimal effective dose turned out to be 5 mg/kg. The ED50 with mice [1] amounted to 2.03 mg/kg; in the experiment on mice [2], 15 mg/kg. Moreover, the “Footshock 100% Blocking Dose Level” value in the experiment on mice [3] was found to be 4 mg.
Turning to `O=C1CN2CCOC2(c2ccccc2)c2cc(Cl)ccc2N1CCO` (stereo not shown) [Compound A, 10-chloro-7-(2-hydroxyethyl)-2,3,5,11b-tetrahydro-11b-phenyloxazolo[3,2-d][1,4]benzodiazepin-6-(7H)-one], the minimal effective dose in the experiment on Cats is 5 mg/kg. For the same compound, the ED50 in the experiment with mice [2] was 50 mg/kg. In the experiment on mice [3], the “Footshock 100% Blocking Dose Level” value was found to be 20 mg.
